# Results published in article PMC3493696 (Life sciences, 2012).
# Like-named read-outs stand apart in the source and are kept apart here.
# How the values were obtained:
# human serum albumin = human serum albumin (Homo sapiens, UniProt P02768); test: Binding to aqueous human serum albumin; type: in vitro ADME; settings: 50 µM
# [1] = i.p., murine model; ref Storr et al. 2009; cited from earlier work
# mice = test: Responses of mice to AM-1241 administration; type: in vivo, mouse
# [2] = Solution stability in acetonitrile at 37°C; type: physicochemical; settings: at least 24 hours, 20 µM
# plasma proteins = test: Plasma-protein binding in undiluted mouse plasma; type: in vitro ADME; settings: up to 50 µM, 30 minute incubation at 37°C, triplicate
# [3] = Tissue distribution of AM-1241 in mice after i.v. or p.o. administration; type: in vivo, mouse; settings: 25 mg/kg; for time by which concentration became undetectable: i.v.
# [4] = local (intraplantar) administration; ref Malan et al. 2001; cited from earlier work
# CB2 vs. CB1 = settings: ref Beltramo 2009; Bingham et al. 2007; Mancini et al. 2009; Nackley et al. 2003; Quartilho et al. 2003; Yao et al. 2006; cited from earlier work
# [5] = Microsomal metabolism and LC-MS/MS metabolite analysis, rat liver microsomes; type: in vitro ADME; settings: 100 µM, 30 minutes, 37°C, NADPH
# [6] = Microsomal metabolism and LC-MS/MS metabolite analysis, human liver microsomes; type: in vitro ADME; settings: 100 µM, 30 minutes, 37°C, NADPH
# [7] = Plasma pharmacokinetics in mice after i.v. or p.o. AM-1241*HCl; type: in vivo, mouse
# [8] = ref Beltramo 2009, cited from earlier work
# [9] = Stability in mouse plasma at 37°C; type: in vitro ADME; settings: at least 6 hours, 20 µM
# [10] = Thermal stability of aqueous AM-1241*HCl solutions; type: physicochemical; settings: 0.003, 0.03, 0.3 and 1 mg/mL, up to 14 days
# CB2 [11] = target: T1, CB2 (Homo sapiens, UniProt P34972); settings: ref Beltramo 2009; Bingham et al. 2007; Mancini et al. 2009; Nackley et al. 2003; Quartilho et al. 2003; Yao et al. 2006; cited from earlier work
# T1 sequence (P34972 whole entry, species assumed): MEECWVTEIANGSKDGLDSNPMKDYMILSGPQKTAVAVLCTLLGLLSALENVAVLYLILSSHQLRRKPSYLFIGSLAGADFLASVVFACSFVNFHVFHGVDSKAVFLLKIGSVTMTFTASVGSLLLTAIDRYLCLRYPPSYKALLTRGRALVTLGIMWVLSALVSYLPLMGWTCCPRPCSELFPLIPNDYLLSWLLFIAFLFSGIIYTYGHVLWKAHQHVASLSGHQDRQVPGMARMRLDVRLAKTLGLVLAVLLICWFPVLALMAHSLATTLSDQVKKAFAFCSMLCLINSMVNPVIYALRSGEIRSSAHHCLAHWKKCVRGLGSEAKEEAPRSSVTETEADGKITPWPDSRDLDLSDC
# [12] = 1.0 mg/kg i.v.; ref Dhawan et al. 2006; Petitet et al. 1999; cited from earlier work
# [13] = rodents, doses of 0.1–100 mg/kg; ref Valenzano et al. 2005; cited from earlier work
# [14] = ref Giblin et al. 2007; cited from earlier work
# CB2 [15] = target: T1, CB2; test: Preliminary experiments: CB2 agonist potency of metabolite; settings: data not shown
# Chain of human serum albumin (P02768 25-609): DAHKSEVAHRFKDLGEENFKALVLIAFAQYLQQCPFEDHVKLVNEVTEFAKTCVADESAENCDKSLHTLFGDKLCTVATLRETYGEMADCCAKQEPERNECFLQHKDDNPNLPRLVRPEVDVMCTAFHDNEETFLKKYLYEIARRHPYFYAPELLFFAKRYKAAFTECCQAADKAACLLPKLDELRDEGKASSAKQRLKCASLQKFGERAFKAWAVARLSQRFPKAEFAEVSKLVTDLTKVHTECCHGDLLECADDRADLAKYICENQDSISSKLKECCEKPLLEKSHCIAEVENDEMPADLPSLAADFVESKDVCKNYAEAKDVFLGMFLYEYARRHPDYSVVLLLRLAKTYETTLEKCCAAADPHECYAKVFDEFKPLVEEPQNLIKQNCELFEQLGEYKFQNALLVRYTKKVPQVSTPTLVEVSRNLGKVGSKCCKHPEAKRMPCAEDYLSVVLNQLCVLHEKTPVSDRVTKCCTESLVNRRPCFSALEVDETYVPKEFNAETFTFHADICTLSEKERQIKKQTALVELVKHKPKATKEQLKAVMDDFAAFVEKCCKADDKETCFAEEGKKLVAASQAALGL
compound,measurement,setting,value
"CN1CCCCC1Cn1cc(C(=O)c2cc([N+](=O)[O-])ccc2I)c2ccccc21 (racemic) [AM-1241, (R,S)-(2-iodo-5-nitrophenyl)-[1-((1-methyl-piperidin-2-yl)methyl-1H-indol-3-yl]-methanone]",bound to albumin,human serum albumin; 0.4% (w/v) aqueous human serum albumin,56%
same,bound to albumin,human serum albumin; 1.0% (w/v) aqueous human serum albumin,85%
same,daily dose required to reduce experimental colitis,[1],20 to 40 mg/kg
same,toxicity,"mice; 25 mg/kg orally or i.v., necropsies unremarkable",not toxic
same,transient gaping response (animals affected),mice; 25 mg/kg p.o.,Two out of 29 mice
same,gross organ or tissue abnormalities at end-point necropsy,mice; any AM-1241 treatment (25 mg/kg i.v. or p.o.),No gross organ or tissue abnormalities
same,recovery after incubation (stability),[2],> 95%
same,bound to plasma protein,plasma proteins,99%
same,time by which concentration became undetectable,[3]; brain,≤ 120 min
same,time by which concentration became undetectable,[3]; intestine,≤ 240 min
same,time by which concentration became undetectable,[3]; kidney,≤ 240 min
same,time by which concentration became undetectable,[3]; liver,≤ 90 min
same,detection in brain or liver,[3]; p.o.,not in brain or liver
same,time by which concentration became undetectable,[3]; plasma,≤ 240 min
same,time by which concentration became undetectable,[3]; spleen,≤ 240 min
same,dose at which maximal analgesic efficacy was reached,[4],3.3 mg/kg
same,selectivity for CB2 vs. CB1,CB2 vs. CB1,up to 340 fold
same,site of phase I microsomal metabolism (demethylation and hydroxylation products),[5],primarily on the piperadine moiety
same,metabolites formed compared with rat liver microsomes,[6],the same metabolites
same,half-life after p.o. relative to i.v. administration,[7]; 25 mg/kg,over 2 fold
same,plasma half-life,[7]; 25 mg/kg i.v.,0.617 h
same,half-life after p.o. administration,[7]; 25 mg/kg p.o.,1.37 h
same,oral bioavailability,"[7]; 25 mg/kg, plasma AUC ratio p.o./i.v.",~ 21%
same,doses reported efficacious in various preclinical pain models,"[8]; i.v., Beltramo et al. 2006, Ohta et al. 2008",up to 6 mg/kg
same,recovery after incubation (stability),[9],> 95%
same,stability of aqueous samples,[10]; 4°C,stable
same,stability of aqueous samples,[10]; room temperature,stable
same,CB2 affinity,CB2 [11],low nanomolar
CN1CCCCC1Cn1cc(C(=O)c2cc([N+](=O)[O-])ccc2I)c2ccccc21.Cl (stereo not shown) [AM-1241*HCl],behavior after administration,mice; 25 mg/kg i.v.,"initially somewhat hypoactive, but behaved normally by 90 minutes post-dose"
same,behavior after administration,mice; 25 mg/kg p.o.,remained alert and apparently unaffected
same,transient gaping response (animals affected),mice; 25 mg/kg p.o.,two of the twenty-nine animals
CN1CCCCC1Cn1cc(C(=O)c2ccccc2I)c2ccccc21 (stereo not shown) [AM-2233],catalepsy,[12],profound catalepsy
"COc1ccc2c(c1)c(CCN1CCOCC1)c(C)n2C(=O)c1cccc(Cl)c1Cl [GW405833, reference compound]",dose of maximal effective antihyperalgesic and analgesic activities,[8]; i.p.,1 to 3 mg/kg
same,oral bioavailability,[13],0%
O=C(NCC1CCOCC1)c1cnc(Nc2ccc(Cl)cc2Cl)nc1C(F)(F)F [GW842166X],half-life after p.o. administration,[14],3 to 5 h
"Cc1c(C(=O)c2cccc3ccccc23)c2cccc3c2n1[C@H](CN1CCOCC1)CO3 [WIN 55,212-2]",catalepsy,[12],profound catalepsy
O=C(c1cc([N+](=O)[O-])ccc1I)c1cn(CC2CCCCN2)c2ccccc12 (stereo not shown) [demethylated metabolite of AM-1241],CB2 agonist potency compared to the parent compound,CB2 [15],somewhat less potent
